± gives the expanded uncertainty stated by the source.
Conditions: Liquid, Chromatography

Compound: O=C=O [carbon dioxide]
- vapor or sublimation pressure (223.14 K): 682.9 ± 53 kPa
- vapor or sublimation pressure (298.17 K): 6436.9 ± 500 kPa
- vapor or sublimation pressure (303.16 K): 7210.5 ± 560 kPa
